According to patent US20260200831A1, “Plant Oil Ceramides, Synthesis Method and Use Thereof” (SHENZHEN DIKEMAN BIOTECHNOLOGY CO., LTD., priority 2022, published 2026):

Assays:
[1] = Cell migration (scratch) assay, skin barrier repair; type: cell-based; conditions: sample 100 mg/L
Method: Principle: When cells grow to form a confluent monolayer, a scratch tool is used to create a cell-free blank area on the confluent monolayer cells, the cells in the blank area are removed by a mechanical force, and through a period of incubation, the migration of the cells to the cell-free area is observed, and the migration ability of the cells is reflected by measuring the migration distance of the cells.
• 1. Marking the culture plate. Use a marker pen and ruler to draw evenly spaced horizontal lines (approximately 0.5-1 cm apart) on the back of a 6-well plate, ensuring at least 5 lines cross each well. Avoid thick lines. • 2. Cell seeding. Seed approximately 5×10^5 cells per well (the number varies for varied cells, adjusting based on cell growth rate), and the principle of inoculation is to achieve 100% confluence overnight. • 3. Cell scratching. On the following day, use a pipette tip perpendicular to the cell layer to create scratches along the pre-marked lines on the back of the plate (It is best to use the same tip for all wells). • 4. Cell washing. After the scratching was completed, rinse the cells three times with sterile PBS to remove dislodged cells, leaving a clear visible scratch gap, and then replace with fresh serum-free medium. • 5. Cell culturing and observation. […]

[2] = DPPH free radical scavenging assay
Method: DPPH is 1,1-diphenyl-2-picrylhydrazyl and can be used in antioxidant experiments.
Samples at corresponding concentrations (50, 100, 200, 400, 800 mg/L) were mixed with […] DPPH and absolute ethanol at a 1:1 volume ratio, respectively. DPPH and absolute ethanol were mixed at a 1:1 volume ratio, reacted at room temperature in the dark for 30 min, and the absorbance was measured at 517 nm. The absorbance of the sample mixed with DPPH is denoted as A1, the absorbance of the sample mixed with absolute ethanol is denoted as A2, and the absorbance of DPPH mixed with absolute ethanol is denoted as A3. The DPPH scavenging rate of the sample is calculated as [1−(A1−A2)/A3]×100%.

Q: For CCCCCCCC/C=C\CCCCCCCC(=O)N[C@@H](CO)[C@H](O)[C@H](O)CCCCCCCCCCCCCC [ceramide 3B, oleic acid ceramide], which “healing rate after 24 h” value [1] is on record?
A: 59.32%

Q: And the “DPPH free radical scavenging rate” value ([2]; 50 mg/L)?
A: 7.76%

Q: And the “DPPH free radical scavenging rate” value ([2]; 100 mg/L)?
A: 12.82%

Q: What about the “DPPH free radical scavenging rate” value ([2]; 200 mg/L) of the same compound?
A: 24.10%

Q: What about the “DPPH free radical scavenging rate” value ([2]; 400 mg/L) of the same compound?
A: 29.60%

Q: And the “DPPH free radical scavenging rate” value ([2]; 800 mg/L)?
A: 33.16%
